pIC50: −log10 of the molar value.

A short description of data set [1]: Half life in mouse. It counts as ADME, organism-based. Particulars: in vivo.
A further data set is described as follows: in vivo. Particulars: mouse, po.

Description for Gamma-secretase: Inhibition of Gamma-secretase (unknown origin)
Description for in vivo: Oral bioavailability in mouse

One may read the pIC50 as the negative decadic logarithm of the IC50, by convention in mol/L. On Gamma-secretase, `C[C@H](NC(=O)Cc1cc(F)cc(F)c1)C(=O)N[C@H](C(=O)OC(C)(C)C)c1ccccc1` had a pIC50 of 7.70.
The half-life is the time in which the quantity being followed falls by half. Read a high half-life as slow decline. Broadly, the bioavailability is dose-corrected exposure relative to a reference, in per cent. Compound `CCO[C@H]1CCN(Cc2c(OC)cc(C)c3[nH]ccc23)[C@H](c2ccc(C(=O)O)cc2)C1` [IPTACOPAN] gave a half-life in data set [1] of 7 h. In “in vivo”, this compound registered a bioavailability of 60%.

Source of the values: ChEMBL document CHEMBL6071130, “A comprehensive review of small molecule drugs approved by the FDA in 2023: Advances and prospects” (Eur J Med Chem, 2024).
